Test [1] concerns the target T1, Human alpha-thrombin (Homo sapiens, UniProt P00734).
T1 construct: Human alpha-thrombin (Enzyme Research Labs); purchased Enzyme Research Labs
The test is described as follows: Thrombin counterscreen for selectivity, fluorogenic substrate assay. The note with it: Human alpha-thrombin 12.5 nM, Boc-Val-Pro-Arg-AMC 20 μM, 10 min preincubation. It is filed as biochemical. As to the method: Counterscreens for Selectivity:
In a 96-well white opaque plate, 80 μl of assay buffer was added to each well. Test compounds were added, and serially diluted as above, to generate a concentration range of approximately 1-100 μM. […] 80 μl of this enzyme solution was added to the assay wells. The enzyme/compound mixtures were incubated for 10 minutes at room temperature. Fluorogenic substrate (Boc-Val-Pro-Arg-7-amido-4-methylcoumarin; Sigma) was added to assay wells at a final concentration of 20 μM. The assay plate was spun for 1 minute at 1500 g and then read at 37° C. in a SpectraMax M2 plate reader (λex=380 nm and λem=460 nm). Activity was quantified as the rate of change in fluorescence, which corresponds to the rate of substrate cleavage.
Background: A counterscreen serves to expose hits that act by an unwanted route or on another target.

Test [2] concerns the target T2, Human FXIIa (Homo sapiens, UniProt P00748).
T2 construct: active coagulation factor XII (FXIIa); purchased Enzyme Research Labs
T2 sequence (P00748 373-615 limits assumed): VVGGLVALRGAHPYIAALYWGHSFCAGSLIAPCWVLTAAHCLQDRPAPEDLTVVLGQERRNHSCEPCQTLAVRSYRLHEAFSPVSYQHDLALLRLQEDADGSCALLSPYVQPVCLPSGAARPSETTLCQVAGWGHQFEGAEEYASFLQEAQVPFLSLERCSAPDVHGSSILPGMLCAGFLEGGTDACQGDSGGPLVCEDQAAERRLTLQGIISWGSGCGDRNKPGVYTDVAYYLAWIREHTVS
T2 sequence (P00748 20-372 partner limits assumed): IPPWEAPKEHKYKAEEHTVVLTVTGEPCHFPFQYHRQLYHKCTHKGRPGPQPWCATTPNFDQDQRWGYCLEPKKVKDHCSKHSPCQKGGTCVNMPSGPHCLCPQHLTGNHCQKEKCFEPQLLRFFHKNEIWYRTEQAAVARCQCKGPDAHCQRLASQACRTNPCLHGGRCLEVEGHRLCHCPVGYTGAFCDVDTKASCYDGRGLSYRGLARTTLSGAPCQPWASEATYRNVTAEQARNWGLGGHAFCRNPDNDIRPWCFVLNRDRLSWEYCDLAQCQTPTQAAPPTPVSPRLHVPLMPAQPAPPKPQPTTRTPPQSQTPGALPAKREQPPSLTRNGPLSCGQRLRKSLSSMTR
The test is described as follows: Factor XIIa (FXIIa) inhibitory activity, chromogenic substrate assay. It is filed as biochemical. The note with it: Human FXIIa 12.5 nM, Pefachrome XIIa 400 μM, 10 min preincubation. The method in brief:
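Buffer was 0.5× HBSS with 25 mM HEPES pH 7.4 and 0.5× TBS-Tween 0.05%. Enzyme and compound (about 1–100 μM) were preincubated 10 min at room temperature, then Pefachrome XIIa was added at 400 μM final. Substrate cleavage was followed as the rate of A405 change at 37 °C.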

Where only a bound is given, the exact number is not on record here.

As usually defined, the IC50 is the concentration that gives 50% inhibition. Read a high IC50 as weaker potency. In the case of `Cc1sc2ccccc2c1C(=O)n1nc(N)c2c1CCCC2` (single isomer, unassigned) [Example 24, (3-amino-4,5,6,7-tetrahydroindazol-1-yl)(2-methylbenzo[b]thiophen-3-yl)methanone], the 50% inhibitory concentration (IC50) in test [1] and in test [2] was above 100 µM throughout.

On to `CC(C)c1cc2c(C(=O)n3nc4c(c3N)CCCC4)cccc2[nH]1` (single isomer, unassigned) [Example 51, (3-amino-4,5,6,7-tetrahydroindazol-2-yl)(2-isopropyl-1H-indol-4-yl)methanone], for which the 50% inhibitory concentration (IC50) was above 50 µM in test [1] and 0.4 µM in test [2].

As to `Nc1c2c(nn1C(=O)c1cccc3[nH]c(C4CC4)cc13)CCCC2` (single isomer, unassigned) [Example 53, (3-amino-4,5,6,7-tetrahydroindazol-2-yl)(2-cyclopropyl-1H-indol-4-yl)methanone], the IC50 came out at 28 µM in test [1] and 0.02 µM in test [2].

As to `Nc1nn(C(=O)c2cccc3[nH]c(C4CC4)cc23)c2c1CCCC2` (single isomer, unassigned) [Example 54, (3-amino-4,5,6,7-tetrahydroindazol-1-yl)(2-cyclopropyl-1H-indol-4-yl)methanone], the 50% inhibitory concentration (IC50) in test [1] was above 85 µM; in test [2], 30 µM.

Regarding `Nc1c2c(nn1C(=O)c1cccc3[nH]c(Cl)cc13)CCCC2` (single isomer, unassigned) [Example 55, (3-amino-4,5,6,7-tetrahydroindazol-2-yl)(2-chloro-1H-indol-4-yl)methanone], the results for the IC50 in test [1] and in test [2] were 20 µM and 0.01 µM, respectively.

As to `Nc1nn(C(=O)c2cccc3[nH]c(Cl)cc23)c2c1CCCC2` (single isomer, unassigned) [Example 56, (3-amino-4,5,6,7-tetrahydroindazol-1-yl)(2-chloro-1H-indol-4-yl)methanone], the IC50 in test [1] is above 100 µM; in test [2] it was 29 µM.

For `Cc1cc2c(C(=O)n3nc4c(c3N)CCCC4)cccc2o1` (single isomer, unassigned) [Example 58, (3-amino-4,5,6,7-tetrahydroindazol-2-yl)(2-methylbenzofuran-4-yl)methanone], the figures for the concentration for half-maximal inhibition (IC50) in test [1] and in test [2] were 40 µM and 0.06 µM, respectively.

As to `Cc1cc2c(C(=O)n3nc(N)c4c3CCCC4)cccc2o1` (single isomer, unassigned) [Example 59, (3-amino-4,5,6,7-tetrahydroindazol-1-yl)(2-methylbenzofuran-4-yl)methanone], the IC50 in test [1] and in test [2] was above 100 µM in each case.

Consider `Nc1c2c(nn1C(=O)c1cccc3[nH]c(Br)cc13)CCCC2` (single isomer, unassigned) [Example 62, (3-amino-4,5,6,7-tetrahydroindazol-2-yl)(2-bromo-1H-indol-4-yl)methanone], for which the figures for the IC50 in test [1] and in test [2] were 20 µM and 0.01 µM, respectively.

In the case of `Nc1nn(C(=O)c2cccc3[nH]c(Br)cc23)c2c1CCCC2` (single isomer, unassigned) [Example 63, (3-amino-4,5,6,7-tetrahydroindazol-1-yl)(2-bromo-1H-indol-4-yl)methanone], the 50% inhibitory concentration (IC50) in test [1] is above 100 µM; in test [2] it was 65 µM.

On to `Nc1nn(C(=O)c2cccc3c2CC(=O)N3)c2c1CCCC2` (single isomer, unassigned) [Example 65, 4-(3-amino-4,5,6,7-tetrahydro-1H-indazole-1-carbonyl)indolin-2-one], for which the IC50 in test [1] and in test [2] was above 100 µM in each case.

Regarding `CCc1cc2c(C(=O)n3nc(N)c4c3CCCC4)cccc2n1C` (single isomer, unassigned) [Example 67, (3-amino-4,5,6,7-tetrahydroindazol-1-yl)(2-ethyl-1-methyl-1H-indol-4-yl)methanone], the concentration for half-maximal inhibition (IC50) in test [1] and in test [2] was above 50 µM each time.

Regarding `CCc1cc2c(C(=O)n3nc4c(c3N)CCCC4)cccc2n1CC` (single isomer, unassigned) [Example 68, (3-amino-4,5,6,7-tetrahydroindazol-2-yl)(1,2-diethyl-1H-indol-4-yl)methanone], the IC50 in test [1] is 40 µM; in test [2], 0.01 µM.

For the compound `CCc1cc2c(C(=O)n3nc(N)c4c3CCCC4)cccc2n1CC` (single isomer, unassigned) [Example 69, (3-amino-4,5,6,7-tetrahydroindazol-1-yl)(1,2-diethyl-1H-indol-4-yl)methanone], the IC50 in test [1] is above 100 µM; in test [2] it was 35 µM.

`C=Cc1cc2c(C(=O)n3nc4c(c3N)CCCC4)cccc2[nH]1` (single isomer, unassigned) [Example 70, (3-amino-4,5,6,7-tetrahydroindazol-2-yl)(2-vinyl-1H-indol-4-yl)methanone]: the IC50 stood at 13 µM in test [1] and 0.02 µM in test [2].

Turning to `CN1CCC(C(=O)n2nc3c(c2N)CCCC3)c2ccccc21` (single isomer, unassigned) [Example 73, (R*)-(3-amino-4,5,6,7-tetrahydroindazol-2-yl)(1-methyl-1,2,3,4-tetrahydroquinolin-4-yl)methanone], the 50% inhibitory concentration (IC50) in test [1] and in test [2] was above 50 µM in each case.

Take `CCN1CCC(C(=O)n2nc3c(c2N)CCCC3)c2ccccc21` (single isomer, unassigned) [Example 74, (3-amino-4,5,6,7-tetrahydroindazol-2-yl)(1-ethyl-1,2,3,4-tetrahydroquinolin-4-yl)methanone]: the concentration for half-maximal inhibition (IC50) in test [1] is above 100 µM; in test [2], 0.5 µM.

Consider `CCN1CCC(C(=O)n2nc(N)c3c2CCCC3)c2ccccc21` (single isomer, unassigned) [Example 75, (3-amino-4,5,6,7-tetrahydroindazol-1-yl)(1-ethyl-1,2,3,4-tetrahydroquinolin-4-yl)methanone], for which the half-maximal inhibitory concentration (IC50) in test [1] and in test [2] was above 100 µM in each case.

On to `Nc1c2c(nn1C(=O)C1CCNc3ccccc31)CCCC2` (single isomer, unassigned) [Example 76, (3-amino-4,5,6,7-tetrahydroindazol-2-yl)(1,2,3,4-tetrahydroquinolin-4-yl)methanone], for which the values for the IC50 in test [1] and in test [2] were above 100 µM and 0.3 µM, respectively.

With `Nc1c2c(nn1C(=O)[C@H]1CCCc3[nH]c(Cl)cc31)CC[C@@H](O)C2` (single isomer, unassigned) [Example 125], the values for the concentration for half-maximal inhibition (IC50) in test [1] and in test [2] were above 100 µM and 1.4 µM, respectively.

For the compound `Nc1c2c(nn1C(=O)[C@H]1CCCc3[nH]c(Cl)cc31)CC[C@@H](O)C2` (single isomer, unassigned) [Example 126, ((5R*)-3-amino-5-hydroxy-4,5,6,7-tetrahydroindazol-2-yl)((4S*)-2-chloro-4,5,6,7-tetrahydro-1H-indol-4-yl)methanone], the results for the IC50 in test [1] and in test [2] were 37 µM and 0.02 µM, respectively.

Regarding `Nc1c2c(nn1C(=O)[C@H]1CCCc3[nH]c(Cl)cc31)CC[C@H](O)C2` (single isomer, unassigned) [Example 127, ((5S*)-3-amino-5-hydroxy-4,5,6,7-tetrahydroindazol-2-yl)((4S*)-2-chloro-4,5,6,7-tetrahydro-1H-indol-4-yl)methanone], the half-inhibitory concentration (IC50) was above 80 µM in test [1] and 0.35 µM in test [2].

With `Nc1c2c(nn1C(=O)[C@@H]1CCCc3[nH]c(Cl)cc31)CC[C@H](O)C2` (single isomer, unassigned) [Example 128, ((5S*)-3-amino-5-hydroxy-4,5,6,7-tetrahydroindazol-2-yl)((4R*)-2-chloro-4,5,6,7-tetrahydro-1H-indol-4-yl)methanone], the concentration for half-maximal inhibition (IC50) in test [1] is above 65 µM; in test [2] it was 30 µM.

For `Nc1c2c(nn1C(=O)[C@H]1CCNc3ccc(F)cc31)CC[C@@H](O)C2` (single isomer, unassigned) [Example 129, ((5R*)-3-amino-5-hydroxy-4,5,6,7-tetrahydro-2H-indazol-2-yl)(4(S*)-6-fluoro-1,2,3,4-tetrahydroquinolin-4-yl)methanone], the concentration for half-maximal inhibition (IC50) was above 150 µM in test [1] and 0.05 µM in test [2].

On to `Nc1c2c(nn1C(=O)[C@H]1CCNc3ccc(F)cc31)CC[C@@H](F)C2` (single isomer, unassigned) [Example 137, ((5R*)-3-amino-5-fluoro-4,5,6,7-tetrahydroindazol-2-yl)((4S*)-6-fluoro-1,2,3,4-tetrahydroquinolin-4-yl)methanone], for which the IC50 in test [1] was found to be 29 µM; in test [2], 0.06 µM.

(Values after patent publication US10538512B2, “Aminoacylindazole immunomodulators for treatment of autoimmune diseases” (The Rockefeller University, priority 2016, dated 2020).)
